Test results: patent US4751295A, “Cephalosporin derivatives” (Bristol-Myers Company, priority 1986, dated 1988)
In brackets after ≈: the same amount, converted by molar mass. Where two headings read alike, the source gives them in different places.

Assays:
[1] = test system: Cephalothinresistant E. coli (3 strains) and Kl. pneumoniae (2 strains); test: MIC, two-fold serial agar dilution, group (G-)-Ib; format: cell-based; conditions: Escherichia coli, read-out: Geometric Mean of MIC, (G-)-Ib, Mueller-Hinton agar; 5 strains
Procedure: (§1) In the primary evaluation of the compounds of this invention, the Minimum Inhibitory Concentrations (MIC's) of the compounds were determined by the two-fold serial agar dilution method in Mueller-Hinton agar against 32 strains of test organisms in six groups.
(G-)Ib: Cephalothinresistant E. coli (3 strains) and Kl. pneumoniae (2

[2] = test system: Ps. aeruginosa (7 strains); test: MIC, two-fold serial agar dilution, group (G-)-III; format: cell-based; conditions: Pseudomonas aeruginosa, Mueller-Hinton agar, read-out: Geometric Mean of MIC, (G-)-III
Procedure: as §1
(G-)III: Ps. aeruginosa (7 strains)

[3] = test system: E. coli Juhl; test: Protective Dose50 in mice, E. coli Juhl; format: in vivo; conditions: Escherichia coli, read-out: PD50, E. coli Juhl
Procedure: (§2) Table 2, below, gives the Protective Dose50 (PD50) in mice for a number of the compounds of Formula I against selected microorganisms. Table 3 gives blood levels of various compounds of Formula I upon intramuscular administration of the test compounds to mice at a dosage of 20 mg/kg.

[4] = test system: Penicillinresistant S. aureus (5 strains); test: MIC, two-fold serial agar dilution, group (G+)-Ib; format: cell-based; conditions: Staphylococcus aureus, read-out: Geometric Mean of MIC, (G+)-Ib
Procedure: as §1
(G+)Ib: Penicillinresistant S. aureus (5 strains)

[5] = test system: M. morganii (1 strain), Ent. cloacae (2 strains) and Ser. marcescens (2 strains); test: MIC, two-fold serial agar dilution, group (G-)-II; format: cell-based; conditions: Mueller-Hinton agar; 5 strains; read-out: Geometric Mean of MIC, (G-)-II
Procedure: as §1
(G-)II: M. morganii (1 strain), Ent. cloacae (2 strains) and Ser.

[6] = test system: Penicillinsensitive S. aureus (5 strains); test: MIC, two-fold serial agar dilution, group (G+)-Ia; format: cell-based; conditions: Staphylococcus aureus, read-out: Geometric Mean of MIC, (G+)-Ia
Procedure: as §1
(G+)Ia: Penicillinsensitive S. aureus (5 strains)

[7] = test system: S. aureus Smith; test: Protective Dose50 in mice, S. aureus Smith; format: in vivo; conditions: for ED50: Staphylococcus aureus, read-out: PD50, S. aureus Smith
Procedure: as §2

[8] = blood levels upon intramuscular administration to mice; format: in vivo; conditions: mouse, im, 20 mg/kg
Procedure: as §2

[9] = test system: Cephalothinsensitive E. coli (2 strains), Kl. pneumoniae (1 strain) and Pr. mirabilis (2 strains); test: MIC, two-fold serial agar dilution, group (G-)-Ia; format: cell-based; conditions: Mueller-Hinton agar; 5 strains; read-out: Geometric Mean of MIC, (G-)-Ia
Procedure: as §1
(G+)Ia: Cephalothinsensitive E. coli (2 strains), Kl. pneumoniae (1
strain) and Pr. mirabilis (2 strains)

[10] = test system: P. aeruginosa A9843A; test: Protective Dose50 in mice, P. aeruginosa A9843A; format: in vivo; conditions: Pseudomonas aeruginosa, read-out: PD50, P. aeruginosa A9843A
Procedure: as §2

Row | SMILES | MIC [1] [µg/mL] | MIC [2] [µg/mL] | ED50 [3] [mg/kg] | MIC [4] [µg/mL] | MIC [5] [µg/mL] | MIC [6] [µg/mL] | ED50 [7] [mg/kg] | AUC [8] [ng·h/mL] | Cmax [8] [ng/mL] | half-life [8] [min] | MIC [9] [µg/mL] | MIC ([4]; Mueller-Hinton agar, 5 strains) [µg/mL] | MIC ([6]; Mueller-Hinton agar, 5 strains) [µg/mL] | ED50 [10] [mg/kg] | PD50, S. aureus Smith [7] [mg/kg]
1 | CON=C(C(=O)NC1C(=O)N2C(C(=O)[O-])=C(C=CC[n+]3ccc4sc(N)nc4c3)CS[C@H]12)c1nsc(N)n1 (stereo partly shown) [Compound I-1C, 7-[2-(5-Amino-1,2,4-thiadiazol-3-yl)-2-methoxyiminoacetamido]-3-[3-(2-amino-5-thiazolo[4,5-c]pyridinio)-1-propen-1-yl]-3-cephem-4-carboxylate] | 0.033 (≈ 0.0575 µM) | 3.8 (≈ 6.62 µM) | 0.013 | 0.2 (≈ 0.349 µM) | 0.087 (≈ 0.152 µM) | 0.1 (≈ 0.174 µM) | 0.22 | 18000 | 21000 | 32 | 0.0071 (≈ 0.0124 µM) | – | – | – | –
2 | C=CCON=C(C(=O)NC1C(=O)N2C(C(=O)[O-])=C(/C=C/C[n+]3ccc(C(N)=O)cc3)CSC12)c1nsc(N)n1 (stereo not shown) [Compound I-3H, 7-[2-(Amino-1,2,4-thiadiazol-3-yl)-2-(propen-3-yloxyimino)acetamido]-3-[3-(4-carbamoylpyridinio)-1-propenyl]-3-cephem-4-carboxylate] | 0.1 (≈ 0.175 µM) | 1.9 (≈ 3.33 µM) | – | – | 0.52 (≈ 0.911 µM) | – | – | 25000 | 19000 | 47 | 0.057 (≈ 0.0999 µM) | 0.4 (≈ 0.701 µM) | 0.23 (≈ 0.403 µM) | – | –
3 | CON=C(C(=O)NC1C(=O)N2C(C(=O)[O-])=C(C=CC[n+]3ccccc3)CSC12)c1nsc(N)n1 (stereo not shown) [Compound I-1B, 7-[2-(5-Amino-1,2,4-thiadiazol-3-yl)-2-methoxyiminoacetamido]-3-[3-pyridinio-1-propen-1-yl]-3-cephem-4-carboxylate] | – | – | – | – | – | – | 0.44 | 11000 | 17000 | 21 | – | – | – | 7.7 | 0.65
4 | CON=C(C(=O)NC1C(=O)N2C(C(=O)[O-])=C(/C=C/C[n+]3cccc(CO)c3)CSC12)c1nsc(N)n1 (stereo not shown) [Compound I-1K, 7-[2-(5-Amino-1,2,4-thiadiazol-3-yl)-2-methoxyiminoacetamido]-3-[3-(3-hydroxymethylpyridinio)-1-propenyl]-3-cephem-4-carboxylate] | 0.044 (≈ 0.0828 µM) | 3.5 (≈ 6.58 µM) | – | – | 0.2 (≈ 0.376 µM) | – | 0.53 | 14000 | 24000 | 14 | 0.029 (≈ 0.0546 µM) | 0.8 (≈ 1.5 µM) | 0.35 (≈ 0.658 µM) | – | –
5 | NC(=O)c1cc[n+](C/C=C/C2=C(C(=O)[O-])N3C(=O)C(NC(=O)C(=NOC4CCCC4)c4nsc(N)n4)C3SC2)cc1 (stereo not shown) [Compound I-5H, 7-[2-(5-Amino-1,2,4-thiadiazol-3-yl)-2-cyclopentyloxyiminoacetamido]-3-[3-(4-carbamoylpyridinio)-1-propenyl]-3-cephem-4-carboxylate] | 0.46 (≈ 0.768 µM) | 4.2 (≈ 7.02 µM) | – | – | 2.1 (≈ 3.51 µM) | – | – | 18000 | 22000 | 32 | 0.2 (≈ 0.334 µM) | 0.4 (≈ 0.668 µM) | 0.13 (≈ 0.217 µM) | – | –
6 | CNC(=O)c1cc[n+](C/C=C/C2=C(C(=O)[O-])N3C(=O)C(NC(=O)/C(=N\OC)c4nsc(N)n4)C3SC2)cc1 (stereo not shown) [Compound I-1M, 7-[2-(5-Amino-1,2,4-thiadiazol-3-yl)-2-(Z)-methoxyiminoacetamido]-3-[3-(4-N-methylcarbamoylpyridinio)-1-propenyl]-3-cephem-4-carboxylate] | 0.1 (≈ 0.179 µM) | 2.3 (≈ 4.12 µM) | – | – | 0.17 (≈ 0.304 µM) | – | 0.96 | 14000 | 20000 | 23 | 0.029 (≈ 0.0519 µM) | 0.7 (≈ 1.25 µM) | 0.35 (≈ 0.627 µM) | – | –
7 | CO/N=C(\C(=O)NC1C(=O)N2C(C(=O)[O-])=C(/C=C/C[n+]3cccc4c3CCC4)CSC12)c1nsc(N)n1 (stereo not shown) [Compound I-1O, 7-[2-(5-Amino-1,2,4-thiadiazol-3-yl)-2-(Z)-methoxyiminoacetamido]-3-[3-(2,3-cyclopentenopyridinio)-1-propenyl]-3-cephem-4-carboxylate] | 0.033 (≈ 0.0609 µM) | 14 (≈ 25.8 µM) | 0.17 | – | 0.11 (≈ 0.203 µM) | – | 0.26 | 17000 | 28000 | 32 | 0.029 (≈ 0.0535 µM) | 0.35 (≈ 0.646 µM) | 0.17 (≈ 0.314 µM) | – | –
8 | C#CCON=C(C(=O)NC1C(=O)N2C(C(=O)[O-])=C(/C=C/C[n+]3ccc(C(N)=O)cc3)CSC12)c1nsc(N)n1 (stereo not shown) [Compound I-4H, 7-[2-(5-Amino-1,2,4-thiadiazol-3-yl)-2-propargyloxyiminoacetamido]-3-[3-(4-carbamoylpyridinio)-1-propenyl]-3-cephem-4-carboxylate] | 0.11 (≈ 0.193 µM) | 2.6 (≈ 4.57 µM) | – | – | 0.6 (≈ 1.06 µM) | – | – | 16000 | 27000 | 22 | 0.066 (≈ 0.116 µM) | 0.46 (≈ 0.809 µM) | 0.26 (≈ 0.457 µM) | – | –
9 | CON=C(C(=O)NC1C(=O)N2C(C(=O)[O-])=C(C=CC[n+]3ccc(C(=O)O)cc3)CSC12)c1nsc(N)n1 (stereo not shown) [Compound I-1N, 7-[2-(5-Amino-1,2,4-thiadiazol-3-yl)-2-methoxyiminoacetamido]-3-[3-(4-carboxypyridinio)-1-propenyl]-3-cephem-4-carboxylate] | 0.066 (≈ 0.121 µM) | 5.7 (≈ 10.4 µM) | – | – | 0.3 (≈ 0.55 µM) | – | 2 | 18000 | 24000 | 19 | 0.013 (≈ 0.0238 µM) | 1.6 (≈ 2.93 µM) | 1.2 (≈ 2.2 µM) | – | –
10 | CON=C(C(=O)NC1C(=O)N2C(C(=O)[O-])=C(/C=C/C[n+]3ccc(CO)cc3)CSC12)c1nsc(N)n1 (stereo not shown) [Compound I-1L, 7-[2-(5-Amino-1,2,4-thiadiazol-3-yl)-2-methoxyiminoacetamido]-3-[3-(4-hydroxymethylpyridinio)-1-propen-1-yl]-3-cephem-4-carboxylate] | 0.088 (≈ 0.166 µM) | 2.6 (≈ 4.89 µM) | – | – | 0.15 (≈ 0.282 µM) | – | – | – | – | – | 0.029 (≈ 0.0546 µM) | 0.61 (≈ 1.15 µM) | 0.26 (≈ 0.489 µM) | – | –
11 | CCO/N=C(\C(=O)NC1C(=O)N2C(C(=O)[O-])=C(C=CC[n+]3ccc(C(=O)O)cc3)CSC12)c1nsc(N)n1 (stereo not shown) [Compound I-2N, 7-[2-(5-Amino-1,2,4-thiadiazol-3-yl)-2-(Z)-ethoxyiminoacetamido]-3-[3-(4-carboxypyridinio)-1-propenyl]-3-cephem-4-carboxylate] | – | – | – | – | – | – | 5 | 12000 | 22000 | 20 | – | – | – | – | –
12 | CON=C(C(=O)NC1C(=O)N2C(C(=O)[O-])=C(/C=C/C[n+]3ccsc3C)CSC12)c1nsc(N)n1 (stereo not shown) [Compound I-1J, 7-[2-(5-Amino-1,2,4-thiadiazol-3-yl)-2-methoxyiminoacetamido]-3-[3-(2-methylthiazolio)-1-propen-1-yl]-3-cephem-4-carboxylate] | 0.076 (≈ 0.146 µM) | 1.6 (≈ 3.07 µM) | 0.029 | – | 0.15 (≈ 0.288 µM) | – | 0.35 | 9700 | 19000 | 16 | 0.025 (≈ 0.0479 µM) | 0.35 (≈ 0.671 µM) | 0.17 (≈ 0.326 µM) | – | –
